# Results as given in ChEMBL document CHEMBL1201862, “PubChem BioAssay data set” (2004).
# Calls of active or inactive are those of the source.
# What was measured:
# [1] = biological target: Dual specificity protein kinase CLK2 (Homo sapiens, UniProt P49760); type: functional
# [2] = biological target: Serine/threonine-protein kinase pim-2 (Homo sapiens, UniProt Q9P1W9); type: functional;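 further: value comes from a broad kinase panel profiling study in which PIM2 was one of the panel members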
# [3] = biological target: Dual specificity tyrosine-phosphorylation-regulated kinase 1A (Homo sapiens, UniProt Q13627); type: functional;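 further: measured against DYRK1A as one member of a broad kinome profiling panel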
# [4] = biological target: Serine/threonine-protein kinase D3 (Homo sapiens, UniProt O94806); type: functional;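 further: determined within a kinase panel screen, with PRKCN as the panel member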
# Chain of Serine/threonine-protein kinase D3 (O94806 whole entry): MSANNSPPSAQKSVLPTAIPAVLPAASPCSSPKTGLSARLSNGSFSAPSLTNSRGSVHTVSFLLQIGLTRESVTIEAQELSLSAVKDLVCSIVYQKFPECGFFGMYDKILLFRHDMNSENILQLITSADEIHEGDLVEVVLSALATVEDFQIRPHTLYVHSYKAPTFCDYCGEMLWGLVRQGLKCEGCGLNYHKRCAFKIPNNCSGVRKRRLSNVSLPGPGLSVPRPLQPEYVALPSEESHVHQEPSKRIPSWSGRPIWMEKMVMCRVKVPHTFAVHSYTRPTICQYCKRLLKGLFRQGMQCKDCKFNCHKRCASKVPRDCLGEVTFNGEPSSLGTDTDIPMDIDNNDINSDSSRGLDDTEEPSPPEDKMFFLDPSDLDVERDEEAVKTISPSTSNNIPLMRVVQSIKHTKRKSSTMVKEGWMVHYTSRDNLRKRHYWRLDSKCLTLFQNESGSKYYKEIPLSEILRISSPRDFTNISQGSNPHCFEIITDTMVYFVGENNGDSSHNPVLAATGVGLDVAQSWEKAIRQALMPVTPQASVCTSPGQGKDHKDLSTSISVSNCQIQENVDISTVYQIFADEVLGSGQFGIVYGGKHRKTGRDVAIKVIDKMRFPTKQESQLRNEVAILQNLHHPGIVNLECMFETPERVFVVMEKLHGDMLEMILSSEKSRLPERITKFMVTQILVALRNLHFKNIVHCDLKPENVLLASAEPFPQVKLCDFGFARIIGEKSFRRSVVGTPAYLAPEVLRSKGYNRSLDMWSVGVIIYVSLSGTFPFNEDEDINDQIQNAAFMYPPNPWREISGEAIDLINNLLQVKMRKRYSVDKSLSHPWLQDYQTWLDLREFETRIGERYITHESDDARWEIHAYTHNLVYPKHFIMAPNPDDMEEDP
# [5] = biological target: Serine/threonine-protein kinase D2 (Homo sapiens, UniProt Q9BZL6); type: functional;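 further: measured against PRKD2 as one member of a kinome-wide kinase profiling panel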
# Chain of Serine/threonine-protein kinase D2 (Q9BZL6 whole entry): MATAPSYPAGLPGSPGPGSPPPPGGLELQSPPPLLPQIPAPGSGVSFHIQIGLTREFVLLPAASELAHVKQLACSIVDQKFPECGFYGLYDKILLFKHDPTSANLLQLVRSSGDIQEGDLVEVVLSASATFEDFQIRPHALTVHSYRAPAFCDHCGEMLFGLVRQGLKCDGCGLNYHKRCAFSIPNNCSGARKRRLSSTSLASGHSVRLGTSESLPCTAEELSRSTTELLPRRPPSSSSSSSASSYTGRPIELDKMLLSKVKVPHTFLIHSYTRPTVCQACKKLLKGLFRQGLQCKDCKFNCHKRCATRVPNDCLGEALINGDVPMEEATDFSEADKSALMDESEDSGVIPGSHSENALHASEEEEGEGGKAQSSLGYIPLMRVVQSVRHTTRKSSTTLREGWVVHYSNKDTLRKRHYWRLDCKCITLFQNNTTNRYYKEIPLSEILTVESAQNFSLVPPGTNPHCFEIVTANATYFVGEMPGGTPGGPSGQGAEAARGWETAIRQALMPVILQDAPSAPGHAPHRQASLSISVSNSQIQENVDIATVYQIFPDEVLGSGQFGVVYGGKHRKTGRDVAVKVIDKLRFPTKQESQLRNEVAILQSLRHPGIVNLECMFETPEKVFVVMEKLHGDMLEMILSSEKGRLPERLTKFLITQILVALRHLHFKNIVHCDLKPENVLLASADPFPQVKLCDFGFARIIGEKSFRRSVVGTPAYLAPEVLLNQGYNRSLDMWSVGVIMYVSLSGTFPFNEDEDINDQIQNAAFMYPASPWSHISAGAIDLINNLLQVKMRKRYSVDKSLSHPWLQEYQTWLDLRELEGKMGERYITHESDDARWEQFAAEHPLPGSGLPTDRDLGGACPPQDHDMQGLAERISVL
# [6] = biological target: T1, High affinity choline transporter 1 (Homo sapiens, UniProt Q9GZV3); test: CHT inhibitors, dose response, cell-based, 10-point CRC, membrane potential dye (AID 588401); type: functional;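 further: membrane potential dye fluorescence of choline-evoked depolarization via CHT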
# T1 sequence (Q9GZV3 whole entry): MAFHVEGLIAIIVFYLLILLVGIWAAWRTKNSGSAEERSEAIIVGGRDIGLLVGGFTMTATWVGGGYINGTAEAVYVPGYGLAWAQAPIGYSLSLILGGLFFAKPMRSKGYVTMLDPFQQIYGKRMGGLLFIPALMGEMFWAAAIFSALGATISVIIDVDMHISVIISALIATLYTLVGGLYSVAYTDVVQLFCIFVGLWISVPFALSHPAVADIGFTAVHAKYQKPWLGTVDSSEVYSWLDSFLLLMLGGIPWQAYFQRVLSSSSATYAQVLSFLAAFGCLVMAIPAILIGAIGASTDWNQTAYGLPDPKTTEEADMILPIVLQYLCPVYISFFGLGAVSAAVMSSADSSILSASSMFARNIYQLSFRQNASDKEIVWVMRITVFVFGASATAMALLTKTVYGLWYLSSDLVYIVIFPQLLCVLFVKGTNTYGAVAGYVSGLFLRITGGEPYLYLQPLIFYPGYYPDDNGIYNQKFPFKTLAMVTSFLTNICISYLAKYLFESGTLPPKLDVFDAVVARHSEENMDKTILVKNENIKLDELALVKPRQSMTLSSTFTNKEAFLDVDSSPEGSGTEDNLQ
# [7] = biological target: T1, High affinity choline transporter 1; test: CHT inhibitors, dose response, cell-based, 5-point CRC, membrane potential dye (AID 504840); type: functional
# [8] = biological target: T2, Calpain-2 catalytic subunit (Sus scrofa, UniProt P43367); test: pig calpain II inhibitor potency, dose response, biochemical, fluorogenic peptide substrate (AID 1420); type: functional
# T2 sequence (P43367 whole entry): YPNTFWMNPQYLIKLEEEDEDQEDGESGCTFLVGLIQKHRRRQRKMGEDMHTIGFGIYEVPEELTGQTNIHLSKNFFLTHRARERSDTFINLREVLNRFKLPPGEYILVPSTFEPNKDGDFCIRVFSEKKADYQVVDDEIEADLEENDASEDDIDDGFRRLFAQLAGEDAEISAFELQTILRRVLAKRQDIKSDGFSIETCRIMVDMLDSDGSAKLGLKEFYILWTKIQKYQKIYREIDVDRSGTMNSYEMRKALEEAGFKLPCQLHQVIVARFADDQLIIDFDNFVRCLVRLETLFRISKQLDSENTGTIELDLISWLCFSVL
# BJ [9] = test: cells; type: functional, cell-based; settings: Homo sapiens
# [10] = cytotoxicity in HPDE-C7 cells, cell-based, fluorescence, HTS (AID 430); type: functional; settings: Homo sapiens
# [11] = inhibitors of SNCA 5'UTR-driven reporter translation, confirmation, H4 neuroglioma cells, luminescence (AID 1988); type: functional, cell-based
# [12] = LGR2 antagonists, dose response, cell-based, HEK293, CRE-luciferase reporter, cherry pick, set 2 (AID 743343); type: functional;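 further: transfected cells were stimulated with diluted bursicon conditioned medium after compound addition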
# [13] = A549 cell cytotoxicity, dose response, cytotoxicity control, plate reader, cherry-pick, antagonist series (AID 743412); type: functional, cell-based
# [14] = cytotoxicity in KRAS-transformed pancreatic duct cells, primary screen, cell-based, fluorescence, HTS (AID 431); type: functional; settings: Homo sapiens;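 further: cell line used: HPDE-C7K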
# [15] = HepG2 cell cytotoxicity, dose response, cytotoxicity control, plate reader, cherry-pick, antagonist series (AID 743416); type: functional, cell-based
# [16] = HEK293 cell cytotoxicity, dose response, cytotoxicity control, plate reader, cherry-picked samples (AID 743446); type: functional, cell-based
# [17] = inhibitors of firefly luciferase expression or activity, dose response, H4 neuroglioma cells, luminescence (AID 1990); type: functional, cell-based
# BJ [18] = test: cytotoxicity toward BJ-TERT-LT-ST fibroblasts, dose response, cell-based, RAS-independent, luminescence (AID 1935); type: functional; settings: Homo sapiens;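 further: BJ fibroblasts immortalized with TERT plus LT and ST oncogenes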
# [19] = MC4R antagonists, dose response, counter-screen for LGR2 antagonist project, cell-based, plate reader, cherry pick (AID 743444); type: functional;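 further: transfected HEK 293 cells stimulated with alpha-MSH peptide; potency of inhibitors of the alpha-MSH evoked signal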
# [20] = Luminescence Cell-Based Dose Response HTS to Identify Inhibitors of 5'UTR Stem-Loop Driven Prion Protein mRNA Translation in H4 Neuroglioblastoma Cells. [Related pubchem assays: 1827 (Project Summary), 1813 (Primary HTS)]; type: functional
# [21] = cytotoxicity toward DRD oncogenic fibroblasts, dose response, cell-based, non-viral oncogenic, luminescence (AID 1934); type: functional; settings: Homo sapiens
# [22] = inhibitors of PGC1a acetylation in cells, dose response, cell-based, cherry-picked samples (AID 720514); type: functional;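 further: potency may reflect raised or lowered acetylation signal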
# BJ [23] = test: cytotoxicity toward BJ-TERT fibroblasts, dose response, cell-based, RAS-independent, luminescence (AID 1933); type: functional; settings: Homo sapiens
# Melanocortin receptor 4 = Melanocortin receptor 4 (Homo sapiens, UniProt P32245); test: MC4R antagonist potency on cAMP, dose response, cell-based, TR-FRET, biased antagonists (AID 602298); type: functional;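 further: antagonist potency against agonist-stimulated cAMP production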
# Chain of Melanocortin receptor 4 (P32245 whole entry): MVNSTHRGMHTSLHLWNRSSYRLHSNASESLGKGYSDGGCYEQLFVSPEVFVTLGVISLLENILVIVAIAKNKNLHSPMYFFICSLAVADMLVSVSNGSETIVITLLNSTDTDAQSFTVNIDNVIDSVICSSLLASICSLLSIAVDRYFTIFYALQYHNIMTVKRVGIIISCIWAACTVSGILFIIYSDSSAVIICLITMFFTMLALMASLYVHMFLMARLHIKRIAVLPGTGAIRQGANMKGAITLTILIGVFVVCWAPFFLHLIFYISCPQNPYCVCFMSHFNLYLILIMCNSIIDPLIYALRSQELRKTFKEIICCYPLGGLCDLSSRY
# [24] = nonselective inhibitors of cellular cAMP signaling, dose response, counter-screen for MC4R biased antagonist project, cell-based, TR-FRET cAMP detection (AID 602305); type: functional;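 further: U2OS cells stimulated with forskolin near its EC80 as the cAMP inducer; potency is for inhibition of forskolin-stimulated cAMP signaling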
# Chain of Dual specificity protein kinase CLK2 (P49760 whole entry): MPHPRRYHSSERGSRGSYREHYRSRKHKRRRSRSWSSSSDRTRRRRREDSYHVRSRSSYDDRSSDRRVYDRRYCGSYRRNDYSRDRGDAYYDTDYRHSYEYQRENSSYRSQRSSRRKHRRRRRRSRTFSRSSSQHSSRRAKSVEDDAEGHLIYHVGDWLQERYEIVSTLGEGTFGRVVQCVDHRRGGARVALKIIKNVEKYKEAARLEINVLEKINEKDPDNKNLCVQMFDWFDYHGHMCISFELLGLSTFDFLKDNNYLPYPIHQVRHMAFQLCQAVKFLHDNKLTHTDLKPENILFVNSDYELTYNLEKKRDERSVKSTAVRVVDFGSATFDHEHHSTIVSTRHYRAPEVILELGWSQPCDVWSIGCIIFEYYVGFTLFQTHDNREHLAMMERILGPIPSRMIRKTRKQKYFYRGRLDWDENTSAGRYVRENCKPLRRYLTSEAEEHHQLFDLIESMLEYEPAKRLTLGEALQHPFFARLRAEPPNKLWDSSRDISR
# Chain of Serine/threonine-protein kinase pim-2 (Q9P1W9 whole entry): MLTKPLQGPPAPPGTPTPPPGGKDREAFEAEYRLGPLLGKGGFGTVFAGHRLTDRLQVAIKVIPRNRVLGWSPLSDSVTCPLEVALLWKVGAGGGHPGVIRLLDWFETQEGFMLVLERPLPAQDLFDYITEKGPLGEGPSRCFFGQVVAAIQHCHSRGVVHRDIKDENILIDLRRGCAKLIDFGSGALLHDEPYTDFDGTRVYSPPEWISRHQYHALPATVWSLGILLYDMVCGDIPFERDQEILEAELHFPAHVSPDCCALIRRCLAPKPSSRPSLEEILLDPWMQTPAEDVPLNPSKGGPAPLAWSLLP
compound,measurement,setting,value
Cn1ccc2c(-c3ccccc3F)nc(N(C(N)=O)c3c(F)cccc3F)nc21,Ki,[1],7.94 µM (active)
same,Ki,[2],1.26 µM (active)
same,Ki,[3],3.16 µM (active)
same,Ki,[4],2 µM (active)
same,Ki,[5],3.16 µM (active)
CC(C)CCN=C(S)Nc1ccc([N+](=O)[O-])cc1,IC50,[6],8.43 µM (active)
same,IC50,[7],9.34 µM (active)
same,IC50,[8],> 50 µM (not active)
C[S+]([O-])c1nc(-c2ccc(Br)cc2)cc(-c2ccccc2)c1C#N (stereo not given),EC50,BJ [9],5.13 µM (active)
same,EC50,[10],1.78 µM (active)
same,EC50,[11],3.41 µM (active)
same,AC50,[12],19.8 µM (active)
same,AC50,[13],3.25 µM (active)
same,EC50,[14],2.18 µM (active)
same,AC50,[15],11.2 µM (active)
same,AC50,[16],7.73 µM (active)
same,EC50,[17],7.72 µM (active)
same,EC50,BJ [18],2.41 µM (active)
same,AC50,[19],25.1 µM (active)
same,EC50,[20],5.38 µM (active)
same,EC50,[21],2.91 µM (active)
same,AC50,[22],5.21 µM (active)
same,EC50,BJ [23],3.04 µM (active)
same,IC50,Melanocortin receptor 4,1.28 µM (active)
same,IC50,[24],> 64.6 µM (inactive)
